This is an account of results in patent publication US7416848B2, “DNA encoding SNORF25 receptor” (H. Lundbeck A/S, priority 1999, dated 2008).

One experiment has as its system untransfected CHO cells. Nature of the experiment: cAMP release in native untransfected CHO cells. In kind it is cell-based, Chinese hamster. The following applies: FIG. 11A. The protocol:
(§1) CHO cells are grown on 150 mm plates in HAM's F-12 medium with supplements (10% bovine calf serum, 4 mM L-glutamine and 100 units/ml penicillin/100 μg/ml streptomycin) at 37° C., 5% CO2. Stock plates of CHO cells are trypsinized and split 1:8 every 3–4 days.
The receptor-mediated stimulation or inhibition of cyclic AMP (cAMP) formation may be assayed in cells expressing the receptors. According to one method, cells are plated in 96-well plates or other vessels and preincubated in a buffer such as HEPES buffered saline (NaCl (150 mM), CaCl2 (1mM), KCl (5 mM), glucose (10 mM)) supplemented with a phosphodiesterase inhibitor such as 5 mM theophylline, with or without protease inhibitor cocktail (For example, a typical inhibitor cocktail contains 2 μg/ml aprotinin, 0.5 mg/ml leupeptin, and 10 μg/ml phosphoramidon.) for 20 min at 37° C., in 5% CO2. Test compounds are added with or without […] and incubated for an additional 10 min at 37° C. The medium is then aspirated and the reaction stopped by the addition of 100 mM HCl or other methods. The plates are stored at 4° C. for 15 min, and the cAMP content in the stopping solution is measured by radioimmunoassay. Radioactivity may be quantified using a gamma counter equipped with data reduction software. Specific modifications may be performed to optimize the assay for the receptor or to alter the detection method of cAMP. […]

Experiment [1] concerns SNORF25 receptor. Nature of the experiment: cAMP release in Cos-7 cells transiently transfected with SNORF25. The following applies: Cos-7 cells transiently transfected with SNORF25; preliminary, data not shown. In kind it is cell-based. The protocol:
(§2) COS-7 cells are grown on 150 mm plates in DMEM with supplements (Dulbecco's Modified Eagle Medium with 10% bovine calf serum, 4 mM glutamine, 100 units/ml penicillin/100 μg/ml streptomycin) at 37° C., 5% CO2. Stock plates of COS-7 cells are trypsinized and split 1:6 every 3–4 days.
(§3) A typical protocol for the electroporation method as applied to Cos-7 cells is described as follows. Cells to be used for transfection are split 24 hours prior to the transfection to provide flasks which are subconfluent at the time of transfection. The cells are harvested by trypsinization resuspended in their growth media and counted. 5×10^6 cells are suspended in 300 μl of DMEM and placed into an electroporation cuvette. 8 μg of receptor DNA plus 8 μg of any additional DNA needed (e.g. G protein expression vector, reporter construct, antibiotic resistance marker, mock vector, etc.) is added to the cell suspension, the cuvette is placed into a BioRad Gene Pulser and subjected to an electrical pulse (Gene Pulser settings: 0.25 kV voltage, 950 μF capacitance). […]
(§4) The receptor-mediated stimulation or inhibition of cyclic AMP (cAMP) formation may be assayed in cells expressing the receptors. […] The plates are stored at 4° C. for 15 min, and the cAMP content in the stopping solution is measured by radioimmunoassay. Radioactivity may be quantified using a gamma counter equipped with data reduction software. […]

Experiment [2] deals with T1, SNORF25 (Homo sapiens, UniProt Q8TDV5).
T1 sequence (Q8TDV5 1-335): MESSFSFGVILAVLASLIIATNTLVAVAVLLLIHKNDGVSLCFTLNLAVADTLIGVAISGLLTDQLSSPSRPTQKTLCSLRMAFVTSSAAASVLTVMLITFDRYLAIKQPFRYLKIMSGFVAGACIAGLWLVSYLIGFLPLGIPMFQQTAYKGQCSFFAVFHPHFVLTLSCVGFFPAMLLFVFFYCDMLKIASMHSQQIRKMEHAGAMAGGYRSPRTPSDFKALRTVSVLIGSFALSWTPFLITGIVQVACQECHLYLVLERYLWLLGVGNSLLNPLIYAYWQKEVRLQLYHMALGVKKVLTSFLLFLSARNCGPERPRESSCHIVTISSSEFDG
The experiment is described as follows: Stimulation of cAMP release by CHO cells stably expressing hSNORF25 receptors. Particulars: for stimulation of cAMP: 10 μM, data not shown; for % of PAF(C18) Response: maximum response as % of maximum response produced by PAF(C18) (taken as 100%); for EC50: mean ± S.E.M., at least 3 experiments, CHO cells stably expressing hSNORF25. In kind it is cell-based. The arrangement: expressed in transfected cells. The protocol:
as §1
Heterologous DNA can be stably incorporated into host cells, causing the cell to perpetually express a foreign protein. Methods for the delivery of the DNA into the cell are similar to those described above for transient expression but require the co-transfection of an ancillary gene to confer drug resistance on the targeted host cell. The ensuing drug resistance can be exploited to select and maintain cells that have taken up the DNA. An assortment of resistance genes are available including but not restricted to neomycin, kanamycin, and hygromycin. For the purposes of studies concerning the receptor of this invention, stable expression of a heterologous receptor protein is typically carried out in, mammalian cells including but not necessarily restricted to, CHO, HEK293, LM(tk−), etc.
(§5) The receptor-mediated stimulation or inhibition of cyclic AMP (cAMP) formation may be assayed in cells expressing the receptors. According to one method, cells are plated in 96-well plates or other vessels and preincubated in a buffer such as HEPES buffered saline (NaCl (150 mM), CaCl2 (1mM), KCl (5 mM), glucose (10 mM)) supplemented with a phosphodiesterase inhibitor such as 5 mM theophylline, with or without protease inhibitor cocktail (For example, a typical inhibitor cocktail contains 2 μg/ml aprotinin, 0.5 mg/ml leupeptin, and 10 μg/ml phosphoramidon.) for 20 min at 37° C., in 5% CO2. Test compounds are added with or without […] and incubated for an additional 10 min at 37° C. The medium is then aspirated and the reaction stopped by the addition of 100 mM HCl or other methods. The plates are stored at 4° C. for 15 min, and the cAMP content in the stopping solution is measured by radioimmunoassay. Radioactivity may be quantified using a gamma counter equipped with data reduction software. Specific modifications may be performed to optimize the assay for the receptor or to alter the detection method of cAMP.
as §5, with “According” for “The receptor-mediated stimulation or inhibition of cyclic AMP (cAMP) formation may be assayed in cells expressing the receptors. According”, “a second” for “one”, “washed 2 times with” for “plated in 96-well plates or other vessels and preincubated in a buffer such as”, “saline, as described above, and incubated overnight. On the day of the experiment, cells are washed 2 times with HEPES” for “saline (NaCl (150 mM), CaCl2 (1mM), KCl (5 mM), glucose (10 mM))”
Several other closely related analogues of PAF namely Lyso-PAF with different carbon chains also stimulated cAMP.

In experiment [3] the test system is isolated rat pancreatic islets. Particulars: cited from earlier work.
For a further experiment, the target named is PAF receptors (Homo sapiens, UniProt P25105). The following applies: cloned or native PAF receptors; cited from earlier work.
The subject of experiment [4] is mock-transfected Cos-7 cells. The experiment is described as follows: cAMP in mock-transfected Cos-7 cells. Type of experiment: cell-based. Particulars: preliminary. The protocol:
as §2, §3, §4

Experiment [5] deals with T2, SNORF25 receptor (Rattus norvegicus, UniProt Q7TQN8).
T2 construct: the entire coding region was amplified from Rin14b cell line cDNA and rat genomic DNA; expressed in transfected cells; host or cells: CHO cells, transient (electroporation)
T2 sequence (Q7TQN8 with tags, fused parts or gaps limits assumed): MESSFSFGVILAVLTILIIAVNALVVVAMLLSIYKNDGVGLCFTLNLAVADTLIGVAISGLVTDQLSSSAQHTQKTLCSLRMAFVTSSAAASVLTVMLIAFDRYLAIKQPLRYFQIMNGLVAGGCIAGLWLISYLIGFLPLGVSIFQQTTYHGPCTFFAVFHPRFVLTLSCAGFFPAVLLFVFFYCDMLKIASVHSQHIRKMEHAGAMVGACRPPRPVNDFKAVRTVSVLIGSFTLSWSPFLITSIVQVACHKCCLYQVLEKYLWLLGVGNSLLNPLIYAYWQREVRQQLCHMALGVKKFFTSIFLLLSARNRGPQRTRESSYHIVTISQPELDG
The experiment is described as follows: cAMP release in CHO cells transiently transfected with SNORF25. Type of experiment: cell-based. Particulars: 10 μM; SNORF25-transfected cells (FIG. 6). As for the experimental part: as §1, §3, §4

In experiment [6] the target is T1, SNORF25. The experiment is described as follows: CFTR Cl- currents in Xenopus oocytes co-injected with SNORF25 and CFTR mRNA. In kind it is cell-based. The arrangement: from linearized plasmids or PCR products containing the complete coding region of the genes; expressed in transfected cells; host or cells: Xenopus laevis oocytes injected with SNORF25 mRNA (with or without CFTR mRNA). Particulars: 10 μM; for CFTR current response: oocytes with SNORF25 and CFTR mRNA (FIG. 12A). The protocol:
Oocytes are harvested from Xenopus laevis and injected with mRNA transcripts as previously described (Quick and Lester, 1994; Smith et al., 1997). The test receptor of this invention and Gα subunit RNA transcripts are synthesized using the T7 polymerase (“Message Machine,” Ambion) from linearized plasmids or PCR products containing the complete coding region of the genes. Oocytes are injected with 10 ng synthetic receptor RNA and incubated for 3–8 days at 17 degrees. Three to eight hours prior to recording, oocytes are injected with 500 pg promiscuous Gα subunits mRNA in order to observe coupling to Ca^++ activated Cl^− currents.
Each of the compounds was tested at 10 μM. Oocytes expressing SNORF25 generated inward Cl^− currents, consistent with CFTR activation, in response to all four of the ligands.
The activity of SNORF25 was therefore tested in oocytes co-injected with mRNA encoding SNORF25 and mRNA encoding CFTR. In 17 out of 39 of these oocytes an inward Cl^− current (105±20 nA) was measured in response to the application of 10 μM all-trans-retinoic acid (See FIGS. 9A–9C and 10).

Experiment [7] deals with B2 adrenergic receptor (B2AR) (Homo sapiens, UniProt P07550). The following applies: 1 μM; holding potential −70 mV (FIG. 9C).
B2 adrenergic receptor (B2AR), sequence (P07550 whole entry, species assumed): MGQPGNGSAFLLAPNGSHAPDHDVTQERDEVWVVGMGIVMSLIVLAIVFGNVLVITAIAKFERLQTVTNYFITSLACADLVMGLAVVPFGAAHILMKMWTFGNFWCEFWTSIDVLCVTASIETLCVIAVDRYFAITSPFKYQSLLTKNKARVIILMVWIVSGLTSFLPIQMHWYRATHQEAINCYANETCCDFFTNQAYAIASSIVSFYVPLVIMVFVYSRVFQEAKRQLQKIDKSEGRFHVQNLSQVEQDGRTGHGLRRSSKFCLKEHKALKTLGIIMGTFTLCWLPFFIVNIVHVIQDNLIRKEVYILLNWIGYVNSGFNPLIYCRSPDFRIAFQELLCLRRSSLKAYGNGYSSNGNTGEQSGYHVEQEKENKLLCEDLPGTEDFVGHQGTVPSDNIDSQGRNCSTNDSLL

PAF receptors, sequence (P25105 whole entry): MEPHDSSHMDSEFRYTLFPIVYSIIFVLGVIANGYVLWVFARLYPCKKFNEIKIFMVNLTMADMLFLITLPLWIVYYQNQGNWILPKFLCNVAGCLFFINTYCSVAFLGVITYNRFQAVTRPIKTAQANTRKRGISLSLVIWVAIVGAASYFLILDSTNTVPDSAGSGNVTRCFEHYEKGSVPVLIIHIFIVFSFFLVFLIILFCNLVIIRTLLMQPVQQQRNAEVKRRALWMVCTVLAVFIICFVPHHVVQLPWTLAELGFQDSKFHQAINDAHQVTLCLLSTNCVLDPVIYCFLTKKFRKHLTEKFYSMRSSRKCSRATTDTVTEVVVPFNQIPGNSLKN

As for “1-O-alkyl-2-acetyl-sn-glycero-3-phosphocholine [PAF]”, the “cAMP response in untransfected CHO cells” value in the experiment with untransfected CHO cells is “No response”. Besides, in the experiment on SNORF25 receptor [1], the “stimulation of cAMP levels” value is listed as 4–5 fold. The “Emax of cAMP response” value on SNORF25 [2] (CHO cells expressing SNORF25 (FIG. 11A)) is on record as 200–400 % basal. Also, the “potency in inducing insulin secretion relative to lyso-PAF” value in experiment [3] was “nearly equipotent to lyso-PAF”. For the same compound, the “potency / activation at typical PAF receptors” value on PAF receptors was “nanomolar potencies”. In addition, the “stimulation of cAMP levels in mock-transfected cells” value in [4] is reported as “not mock-transfected cells”.

For the compound `CCCCC/C=C\C/C=C\C/C=C\C/C=C\CCCC(=O)O` [AA], at SNORF25 [2], the “stimulation of cAMP” value is “no stimulation of cAMP”.

Consider `CC1=C(/C=C/C(C)=C/C=C/C(C)=C/CO)C(C)(C)CCC1` [All-trans retinol, all-trans-retinol], for which the “increase in cAMP” value at SNORF25 receptor [5] is “failed to produce an increase in cAMP”.

`CC1=C(/C=C/C(C)=C/C=C/C(C)=C/C=C/C=C(C)/C=C/C=C(C)/C=C/C2=C(C)CCCC2(C)C)C(C)(C)CCC1` [Atb carotene]: on SNORF25 [2], the “stimulation of cAMP” value is recorded as “no stimulation of cAMP”.

On to `CCCCCCCCCCCCCCCCOC[C@@H](O)COP(=O)([O-])OCC[N+](C)(C)C` [Lyso-PAF(C16)], for which the “inward Cl- current amplitude” value at SNORF25 [6] (oocytes with SNORF25 and CFTR mRNA) was 61.7±7.8 nA. At SNORF25 [6], the CFTR current response entry is recorded as “robust responses”. For the same compound, on SNORF25 [2], the “% of PAF(C18) Response” value is given as 120% and the EC50 was 3.48 ± 1.13 µM.

`CCCCCCCCCCCCCCCCCCOC[C@@H](O)COP(=O)([O-])OCC[N+](C)(C)C` [Lyso-PAF(C18)]: on SNORF25 [6], the CFTR current response entry is “robust responses”. In addition, on SNORF25 [2], the “% of PAF(C18) Response” value is recorded as 70% and the EC50 worked out at 5.45 ± 2.63 µM.

As for `CNC[C@H](O)c1ccc(O)c(O)c1` [epinephrine], the CFTR current entry in experiment [7] is “evokes a similar current”.

As for `CC(C)=CCC/C(C)=C/C=C/C(C)=C/C=C/C(C)=C/C=C/C=C(C)/C=C/C=C(C)/C=C/C=C(\C)CCC=C(C)C` [licopene], the “stimulation of cAMP” value on SNORF25 [2] was “no stimulation of cAMP”.

As to `CCCCCCCCCCCCCCCCOC[C@@H](O)COP(=O)([O-])OCC[N+](C)(C)C` [lyso-PAF], the EC50 in [3] (basal (1.7 mM) and stimulatory (16.7 mM) glucose, read-out: EC50 of insulin release) is about 100 µM. On PAF receptors, the “potency / activation at typical PAF receptors” value was “not activated”.

In the case of `C=C1CC[C@H](O)C/C1=C/C=C1\CCC[C@]2(C)[C@@H]([C@H](C)CCCC(C)C)CC[C@@H]12` [vitamin D3], the “stimulation of cAMP” value at SNORF25 [2] is on record as “no stimulation of cAMP”.

For the compound PAF(C16), the CFTR current response result on SNORF25 [6] is recorded as “robust responses”. The “% of PAF(C18) Response” value at SNORF25 [2] was found to be 110%.

For the compound vitamin E, the “stimulation of cAMP” value on SNORF25 [2] is “no stimulation of cAMP”.

What is called EC50 is the midpoint of the concentration-response curve.
